{"source": "patent US20250195680A1", "about": "“CANCER TREATMENT WITH ANTI-CLAUDIN 18.2 ADC” (priority 2023, published 2025)", "origin": "cited, not measured here", "system": "gastric cancer", "conditions": "combined with CAPOX or mFOLFOX6 vs chemotherapy alone", "data": [{"substance": "zolbetuximab: anti-CLDN18.2 monoclonal antibody", "values": [{"measurement": "efficacy in treating gastric cancer", "result": "effective in treating gastric cancer"}]}]}
